Reference: ChEMBL document CHEMBL5665443, “Enzyme Inhibitor Single Concentration assay results for EUbOPEN Chemogenomics Library” (2024)

Columns and labels:
[1] = target: Methyl-CpG-binding domain protein 4 (Homo sapiens) (UniProt O95243); details: Compound Concentration 10.0 uM, Hit No;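 further: MBD4 activity read as fluorescence at 594 nm from cleavage and release of a quenched duplex DNA oligonucleotide, with APE1 coupled to incise the strand and raise turnover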
Description: Inhibition of MBD4 by quantifying inhibition of MBD4-mediated cleavage and dissociation of quenched duplex DNA oligonucleotides, measured as fluorescence at 594 nm. To generate a functional strand incision and increase turn-over this assay is coupled to APE1.

[2] = target: DNA-3-methyladenine glycosylase (Homo sapiens) (UniProt P29372); details: Compound Concentration 10.0 uM, Hit No;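 further: enzyme assay where MPG cuts a quenched duplex DNA oligonucleotide probe, paired with APE1 for strand incision and turnover, read as fluorescence at 594 nm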
Description: Inhibition of MPG by quantifying inhibition of MPG-mediated cleavage and dissociation of quenched duplex DNA oligonucleotides, measured as fluorescence at 594 nm. To generate a functional strand incision and increase turn-over this assay is coupled to APE1.

[3] = target: T1, Adenine DNA glycosylase (Homo sapiens) (UniProt Q9UIF7); details: Compound Concentration 10.0 uM, Hit No;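 further: human MUTYH activity read as 594 nm fluorescence from cleavage and release of a quenched DNA duplex, coupled with APE1 for strand incision, lower signal meaning inhibition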
T1 sequence (whole entry): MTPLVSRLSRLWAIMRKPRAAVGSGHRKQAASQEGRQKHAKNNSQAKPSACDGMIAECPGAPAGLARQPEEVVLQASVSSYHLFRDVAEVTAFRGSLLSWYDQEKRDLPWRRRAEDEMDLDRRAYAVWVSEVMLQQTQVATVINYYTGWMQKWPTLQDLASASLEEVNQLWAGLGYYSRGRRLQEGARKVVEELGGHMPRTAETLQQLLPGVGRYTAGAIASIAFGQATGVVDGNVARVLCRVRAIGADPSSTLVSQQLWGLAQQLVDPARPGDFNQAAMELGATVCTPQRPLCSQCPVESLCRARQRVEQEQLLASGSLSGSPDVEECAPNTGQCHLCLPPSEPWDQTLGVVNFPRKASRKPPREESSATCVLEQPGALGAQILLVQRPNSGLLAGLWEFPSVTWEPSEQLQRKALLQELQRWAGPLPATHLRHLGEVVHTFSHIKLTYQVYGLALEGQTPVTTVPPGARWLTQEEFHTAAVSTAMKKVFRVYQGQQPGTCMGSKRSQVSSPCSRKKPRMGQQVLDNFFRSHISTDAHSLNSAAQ
Description: Inhibition of MUTYH by quantifying inhibition of MUTYH-mediated cleavage and dissociation of quenched duplex DNA oligonucleotides, measured as fluorescence at 594 nm. To generate a functional strand incision and increase turn-over this assay is coupled to APE1.

[4] = target: Endonuclease 8-like 1 (Homo sapiens) (UniProt Q96FI4); details: Compound Concentration 10.0 uM, Hit No;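 further: fluorescence at 594 nm from quenched duplex DNA oligonucleotides released by NEIL1 cleavage and strand separation, reported as reduction of this enzyme activity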
Description: Inhibition of NEIL1 by quantifying inhibition of NEIL1-mediated cleavage and dissociation of quenched duplex DNA oligonucleotides, measured as fluorescence at 594 nm.

[5] = target: T2, Endonuclease 8-like 2 (Homo sapiens) (UniProt Q969S2); details: Compound Concentration 10.0 uM, Hit No;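 further: fluorescence at 594 nm reports NEIL2 cutting and release of a quenched double-stranded DNA oligo substrate, reduced signal read as inhibition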
T2 sequence (whole entry): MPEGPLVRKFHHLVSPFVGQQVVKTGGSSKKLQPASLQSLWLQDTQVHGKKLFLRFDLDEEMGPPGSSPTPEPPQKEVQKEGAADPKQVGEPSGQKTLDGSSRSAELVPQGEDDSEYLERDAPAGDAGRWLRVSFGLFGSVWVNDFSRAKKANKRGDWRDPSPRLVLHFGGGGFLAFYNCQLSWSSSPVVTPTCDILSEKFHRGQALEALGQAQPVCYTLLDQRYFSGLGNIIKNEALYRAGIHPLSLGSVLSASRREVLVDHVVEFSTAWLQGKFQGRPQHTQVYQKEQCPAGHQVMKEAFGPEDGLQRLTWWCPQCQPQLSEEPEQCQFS
Description: Inhibition of NEIL2 by quantifying inhibition of NEIL2-mediated cleavage and dissociation of quenched duplex DNA oligonucleotides, measured as fluorescence at 594 nm.

[6] = target: T3, Endonuclease III-like protein 1 (Homo sapiens) (UniProt P78549); details: Compound Concentration 10.0 uM, Hit No;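 further: enzyme assay tracking NTHL1 cutting and release of a quenched double-stranded DNA oligo substrate, read as fluorescence at 594 nm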
T3 sequence (whole entry): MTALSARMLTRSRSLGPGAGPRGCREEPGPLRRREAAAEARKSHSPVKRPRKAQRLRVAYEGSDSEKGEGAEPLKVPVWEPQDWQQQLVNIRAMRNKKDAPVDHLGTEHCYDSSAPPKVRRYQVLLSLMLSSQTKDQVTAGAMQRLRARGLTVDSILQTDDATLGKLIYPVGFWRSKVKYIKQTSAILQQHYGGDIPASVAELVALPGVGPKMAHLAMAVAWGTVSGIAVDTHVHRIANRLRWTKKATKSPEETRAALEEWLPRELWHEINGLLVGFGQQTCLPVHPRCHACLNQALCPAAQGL
Description: Inhibition of NTHL1 by quantifying inhibition of NTHL1-mediated cleavage and dissociation of quenched duplex DNA oligonucleotides, measured as fluorescence at 594 nm.

[7] = target: N-glycosylase/DNA lyase (Homo sapiens) (UniProt O15527); details: Compound Concentration 10.0 uM;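 further: OGG1 cleavage of a quenched duplex DNA oligonucleotide, coupled to APE1 for strand incision, read as fluorescence at 594 nm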
Description: Inhibition of OGG1 by quantifying inhibition of OGG1-mediated cleavage and dissociation of quenched duplex DNA oligonucleotides, measured as fluorescence at 594 nm. To generate a functional strand incision and increase turn-over this assay is coupled to APE1.

[8] = target: T4, Single-strand selective monofunctional uracil DNA glycosylase (Homo sapiens) (UniProt Q53HV7); details: Compound Concentration 10.0 uM, Hit No;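 further: enzymatic SMUG1 assay coupled with APE1, reading fluorescence at 594 nm released when a quenched double-stranded DNA oligonucleotide substrate is cleaved and separated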
T4 sequence (whole entry): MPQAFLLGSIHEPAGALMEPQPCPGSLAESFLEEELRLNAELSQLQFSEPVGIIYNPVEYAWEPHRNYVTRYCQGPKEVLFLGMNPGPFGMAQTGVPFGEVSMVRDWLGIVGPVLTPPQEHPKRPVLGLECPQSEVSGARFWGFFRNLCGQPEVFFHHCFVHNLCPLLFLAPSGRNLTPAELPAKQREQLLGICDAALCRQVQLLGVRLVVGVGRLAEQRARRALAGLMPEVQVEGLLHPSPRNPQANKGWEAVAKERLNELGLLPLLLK
Description: Inhibition of SMUG1 by quantifying inhibition of SMUG1-mediated cleavage and dissociation of quenched duplex DNA oligonucleotides, measured as fluorescence at 594 nm. To generate a functional strand incision and increase turn-over this assay is coupled to APE1.

[9] = target: G/T mismatch-specific thymine DNA glycosylase (Homo sapiens) (UniProt Q13569); details: Compound Concentration 10.0 uM;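 further: human TDG cleavage of quenched duplex DNA oligonucleotides coupled to APE1, strand release read as fluorescence at 594 nm, inhibition of TDG activity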
Description: Inhibition of TDG by quantifying inhibition of TDG-mediated cleavage and dissociation of quenched duplex DNA oligonucleotides, measured as fluorescence at 594 nm. To generate a functional strand incision and increase turn-over this assay is coupled to APE1.

[10] = target: Uracil-DNA glycosylase (Homo sapiens) (UniProt P13051); details: Compound Concentration 10.0 uM, Hit No;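 further: UNG excision on a quenched double-stranded DNA oligo probe, with APE1 added for strand incision and turnover, read as fluorescence at 594 nm as strands separate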
Chain of Uracil-DNA glycosylase (Homo sapiens) (P13051 whole entry): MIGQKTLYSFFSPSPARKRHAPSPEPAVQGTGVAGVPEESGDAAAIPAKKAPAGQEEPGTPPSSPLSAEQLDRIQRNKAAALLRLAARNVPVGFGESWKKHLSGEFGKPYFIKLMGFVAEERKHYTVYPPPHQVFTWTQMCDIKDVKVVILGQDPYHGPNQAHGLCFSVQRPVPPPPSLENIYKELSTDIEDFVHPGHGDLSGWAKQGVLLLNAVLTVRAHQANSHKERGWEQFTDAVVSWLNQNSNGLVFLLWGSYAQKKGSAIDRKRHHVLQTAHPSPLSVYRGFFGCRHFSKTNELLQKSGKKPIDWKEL
Description: Inhibition of UNG by quantifying inhibition of UNG-mediated cleavage and dissociation of quenched duplex DNA oligonucleotides, measured as fluorescence at 594 nm. To generate a functional strand incision and increase turn-over this assay is coupled to APE1.

Chain of Methyl-CpG-binding domain protein 4 (Homo sapiens) (O95243 whole entry, the tested form may be a part): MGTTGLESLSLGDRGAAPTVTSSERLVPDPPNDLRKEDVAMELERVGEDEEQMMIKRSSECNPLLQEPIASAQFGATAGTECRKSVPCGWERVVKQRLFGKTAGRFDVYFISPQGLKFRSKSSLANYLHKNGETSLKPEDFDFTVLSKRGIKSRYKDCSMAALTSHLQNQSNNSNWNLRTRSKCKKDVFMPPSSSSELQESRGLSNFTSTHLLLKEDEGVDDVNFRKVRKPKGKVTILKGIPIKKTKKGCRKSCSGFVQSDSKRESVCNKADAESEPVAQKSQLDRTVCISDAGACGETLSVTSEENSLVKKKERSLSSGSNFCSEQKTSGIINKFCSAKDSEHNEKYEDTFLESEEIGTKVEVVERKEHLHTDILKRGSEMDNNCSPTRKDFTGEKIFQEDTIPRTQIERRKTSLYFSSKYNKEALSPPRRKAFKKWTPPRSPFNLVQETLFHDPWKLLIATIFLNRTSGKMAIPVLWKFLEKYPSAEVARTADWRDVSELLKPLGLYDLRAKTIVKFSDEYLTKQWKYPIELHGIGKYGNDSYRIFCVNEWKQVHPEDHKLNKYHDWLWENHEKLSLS
Chain of Endonuclease 8-like 1 (Homo sapiens) (Q96FI4 whole entry): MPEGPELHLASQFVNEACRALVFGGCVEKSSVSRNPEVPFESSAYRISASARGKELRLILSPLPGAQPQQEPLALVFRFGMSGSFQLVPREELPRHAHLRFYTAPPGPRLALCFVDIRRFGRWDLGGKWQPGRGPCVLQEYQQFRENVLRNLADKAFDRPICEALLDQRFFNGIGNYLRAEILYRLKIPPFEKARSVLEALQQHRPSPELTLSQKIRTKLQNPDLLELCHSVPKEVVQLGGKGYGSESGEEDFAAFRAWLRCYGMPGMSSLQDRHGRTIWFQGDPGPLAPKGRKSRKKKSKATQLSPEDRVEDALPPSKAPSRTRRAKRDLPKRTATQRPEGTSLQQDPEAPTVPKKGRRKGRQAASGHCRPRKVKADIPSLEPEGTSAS
Chain of G/T mismatch-specific thymine DNA glycosylase (Homo sapiens) (Q13569 whole entry): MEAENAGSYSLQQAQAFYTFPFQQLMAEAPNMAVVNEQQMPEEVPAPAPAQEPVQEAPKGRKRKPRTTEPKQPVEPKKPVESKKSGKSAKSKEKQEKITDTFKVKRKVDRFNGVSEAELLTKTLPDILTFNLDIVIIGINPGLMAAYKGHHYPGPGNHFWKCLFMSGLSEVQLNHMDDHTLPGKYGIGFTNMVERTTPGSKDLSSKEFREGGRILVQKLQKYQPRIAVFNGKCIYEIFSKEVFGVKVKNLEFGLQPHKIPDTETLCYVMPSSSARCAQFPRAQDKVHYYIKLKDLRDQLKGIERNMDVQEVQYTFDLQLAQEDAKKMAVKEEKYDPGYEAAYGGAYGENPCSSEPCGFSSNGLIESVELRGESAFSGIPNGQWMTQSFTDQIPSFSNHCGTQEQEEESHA
Chain of N-glycosylase/DNA lyase (Homo sapiens) (O15527 whole entry): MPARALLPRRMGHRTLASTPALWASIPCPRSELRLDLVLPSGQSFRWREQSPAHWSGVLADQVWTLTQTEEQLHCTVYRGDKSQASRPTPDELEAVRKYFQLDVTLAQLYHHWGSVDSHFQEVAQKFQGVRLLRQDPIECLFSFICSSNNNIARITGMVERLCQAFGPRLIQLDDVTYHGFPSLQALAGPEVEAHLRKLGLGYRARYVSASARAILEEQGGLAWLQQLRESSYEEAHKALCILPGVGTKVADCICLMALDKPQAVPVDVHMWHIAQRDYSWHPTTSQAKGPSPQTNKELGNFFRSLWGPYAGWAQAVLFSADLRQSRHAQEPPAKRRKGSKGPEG
Chain of DNA-3-methyladenine glycosylase (Homo sapiens) (P29372 whole entry): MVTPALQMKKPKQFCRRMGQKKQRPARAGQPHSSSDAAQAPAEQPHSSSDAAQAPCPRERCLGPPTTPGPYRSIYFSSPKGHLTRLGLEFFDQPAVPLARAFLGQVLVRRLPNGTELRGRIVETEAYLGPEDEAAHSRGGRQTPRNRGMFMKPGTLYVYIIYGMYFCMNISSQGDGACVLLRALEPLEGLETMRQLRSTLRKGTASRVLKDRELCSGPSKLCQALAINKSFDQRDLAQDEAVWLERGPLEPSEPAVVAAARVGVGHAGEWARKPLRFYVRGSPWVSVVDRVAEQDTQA

inhibition [1] [%] | inhibition [2] [%] | inhibition [3] [%] | inhibition [4] [%] | inhibition [5] [%] | inhibition [6] [%] | inhibition ([7]; Hit No) [%] | inhibition [8] [%] | inhibition ([9]; Hit No) [%] | inhibition [10] [%] | inhibition ([7]; Hit Yes) [%] | inhibition ([9]; Hit Yes) [%] | Structure (SMILES)
16.4 | -0.668 | -5.42 | -7.55 | -9.52 | -1.08 | -4.9 | -6.96 | 8.29 | -5.32 | – | – | N=C(N)NCCSC(=N)N
10.4 | -7.46 | 10.5 | -0.352 | -0.234 | 15.1 | 0.419 | -0.0333 | 7.61 | -7.79 | – | – | NCCc1c[nH]cn1
56.1 | 53.9 | 47.1 | – | 14 | 9.99 | – | 11.9 | – | 8.83 | 61.2 | 66.5 | CC(C)(O)c1ccccc1CC[C@@H](SCC1(CC(=O)O)CC1)c1cccc(/C=C/c2ccc3ccc(Cl)cc3n2)c1
9.27 | 9.86 | -5.74 | – | 2.26 | -4.67 | -3.25 | 14.7 | 24.4 | -7.52 | – | – | Cc1cc(C)cc(-c2cnc3cc(Cl)c(-c4cccc(O)c4)cc3c2OCCCN)c1
8.97 | -6.47 | 10.2 | -5.77 | – | -1.91 | -3.69 | -7.64 | 3.33 | -9.84 | – | – | COc1ccc2[nH]c(I)c(CCNC(C)=O)c2c1
9.4 | -2.83 | -0.651 | 1.79 | – | 8 | -7.78 | -1.43 | 9.41 | -5.67 | – | – | O=C(NCCNCC(O)COc1ccc(O)cc1)N1CCOCC1 (stereo not drawn)

Second part, the compound before the results:

Structure (SMILES) | inhibition [1] [%] | inhibition [2] [%] | inhibition [3] [%] | inhibition [4] [%] | inhibition [5] [%] | inhibition [6] [%] | inhibition ([7]; Hit No) [%] | inhibition [8] [%] | inhibition ([9]; Hit No) [%] | inhibition [10] [%] | inhibition ([7]; Hit Yes) [%] | inhibition ([9]; Hit Yes) [%]
COc1ccc2cc(S(=O)(=O)N[C@H](CC(=O)N[C@H](Cc3ccc(CN4[C@H](C)CCC[C@@H]4C)cc3)C(=O)N(C)C(C)C)c3ccc4c(c3)OCO4)ccc2c1 | 19.6 | 30 | -1.26 | 12.6 | 10.8 | 7.79 | -6.96 | -5.31 | 44.9 | 3.72 | – | –
Cc1cccc(F)c1C(=O)Nc1cnc(-c2cc3c(cc2Cl)OC(F)(F)O3)cn1 | 7.48 | 18.4 | 6.43 | 1.79 | 6.27 | 8.82 | -4.79 | 9.65 | -9.45 | -6.24 | – | –
C[C@@H](CN1CCC(Cc2ccccc2)CC1)[C@@H](O)c1ccc(O)cc1 | -0.918 | -5.23 | -7.47 | 3.42 | 2.2 | 12.9 | -8.67 | 4.28 | -7.39 | -6.48 | – | –
CN[C@@H]1Cc2cccc3[nH]c(=O)n(c23)C1 | 11.7 | -1.72 | 46.8 | -2.21 | – | 21.2 | -6.94 | 0.551 | 15.8 | -3.54 | – | –
CCCCC[C@H](O)/C=C/[C@H]1[C@H](O)CC(=O)[C@@H]1CCCCCCC(=O)O | 3.22 | 6.53 | -0.521 | 4.31 | – | 22.9 | -9.68 | -7.25 | 19.5 | -7.06 | – | –
Cc1cccc(C2CN(C)CCc3c2cc(O)c(O)c3Cl)c1 (stereo not drawn) | 26.4 | 15 | 33.4 | -4.88 | – | 7.17 | -8.27 | -3.57 | 27.7 | -2.8 | – | –
